Tests used:
Type in all cases: in vivo
Lucilia cuprina = assay: whole plant or invertebrate; details: 48 h
Description: (§1) Solvent: dimethyl sulfoxide
10 mg active compound are dissolved in 0.5 ml Dimethylsulfoxid. Serial dilutions are made to obtain the desired rates.
Approximately 20 1st instar larvae of the Australian sheep blowfly (Lucilia cuprina) are transferred into a test tube containing minced horse meat and compound solution of the desired concentration.
After 2 days mortality in % is determined. 100% means all the larvae have been killed; 0% means none of the larvae have been killed.

Phaedon cochleariae = Phaedon cochleariae spray test; details: foliar, 168 h, Chinese cabbage leaf disks, larvae, after 7 days
Description: Phaedon cochleariae—Spray Test
(§2) Solvent: 78.0 parts by weight of acetone • • 1.5 parts by weight of dimethylformamide
(§3) Emulsifier: alkylarylpolyglycol ether
(§4) To produce a suitable preparation of active compound, 1 part by weight of active compound is mixed with the stated amount of solvents and is diluted with water, containing an emulsifier concentration of 1000 ppm, to the desired concentration. Further test concentrations are prepared by dilution with emulsifier containing water.
Chinese cabbage (Brassica pekinensis) leaf disks are sprayed with a preparation of the active ingredient of the desired concentration. Once dry, the leaf disks are infested with mustard beetle larvae (Phaedon cochleariae).
After 7 days mortality in % is determined. 100% means all beetle larvae have been killed and 0% means none of the beetle larvae have been killed.

Nilaparvata lugens [1] = assay: Nilaparvata lugens spray test (solvent 52.5 acetone / 7 dimethylformamide); details: 96 h, rice plants, larvae, after 4 days
Description: (§5) Nilaparvata lugens—Spray Test
(§6) Solvent: 52.5 parts by weight of acetone • 7 parts by weight of dimethylformamide
(§7) Emulsifier: alkylaryl polyglycolether
as §4, with “water. Ammonium salt and/or penetration enhancer in a dosage of 1000 ppm are added to the desired concentration if necessary.” for “water.”
Rice plants (Oryza sativa) are treated by being sprayed with the desired concentration of the active compound and are infested with larvae of the brown planthopper (Nilaparvata lugens).
(§8) After 4 days mortality in % is determined. 100% means all planthoppers have been killed and 0% means none of the planthoppers have been killed.

Boophilus microplus = Boophilus microplus injection test; details: 20 μg/animal injected; adult engorged female ticks; after 7 days
Description: Boophilus microplus—Injection Test
as §1
To produce a suitable preparation of active compound, 10 mg of active compound are dissolved in 0.5 ml solvent, and the concentrate is diluted with solvent to the desired concentration.
Five adult engorged female ticks (Boophilus microplus) are injected with 1 μl compound solution into the abdomen. The ticks are transferred into replica plates and incubated in a climate chamber.
After 7 days egg deposition of fertile eggs is monitored. Eggs where fertility is not visible are stored in a climate chamber till hatching after about 42 days. An efficacy of 100% means all eggs are infertile; 0% means all eggs are fertile.

Nilaparvata lugens [2] = assay: Nilaparvata lugens spray test (solvent 78.0 acetone / 1.5 dimethylformamide); details: 96 h, rice plants, after 4 days
Description: as §5, §2, §3, §4
Rice plants (Oryza sativa) are sprayed with a preparation of the active ingredient of the desired concentration and the plants are infested with the brown planthopper (Nilaparvata lugens).
as §8

Nezara viridula [3] = assay: Nezara viridula spray test (solvent 78.0 acetone / 1.5 dimethylformamide); details: 96 h, barley plants, larvae, after 4 days
Description: (§9) Nezara viridula—Spray Test
as §2, §3
as §4, with “solvent,” for “solvents”, “and the concentrate” for “and”
(§10) Barley plants (Hordeum vulgare) infested with larvae of the southern green stink bug (Nezara viridula) are sprayed with a test solution containing the desired concentration of the active ingredient.
(§11) After 4 days mortality in % is determined. 100% means all the stink bugs have been killed; 0% means none of the stink bugs have been killed.

Diabrotica balteata = Diabrotica balteata spray test; details: 160 μg/well; germinated wheat seeds, larvae; after 7 days
Description: Diabrotica Balteata—Spray Test
as §2, §3
as §4, with “solvent,” for “solvents”, “and the concentrate” for “and”
Soaked wheat seeds (Triticum aestivum) are placed in a multiple well plate filled with agar and some water and are incubated for 1 day to germinate (5 seeds per well). The germinated wheat seeds are sprayed with a test solution containing the desired concentration of the active ingredient. Afterwards each unit is infected with 10-20 larvae of the banded cucumber beetle (Diabrotica balteata).
After 7 days efficacy in % is determined. 100% means all the seedlings have grown up like in the untreated, uninfected control; 0% means none of the seedlings have grown.

Tetranychus urticae = Tetranychus urticae spray test OP-resistant; details: foliar, 144 h, French bean leaf disks, all instars, after 6 days
Description: Tetranychus urticae—Spray Test OP-Resistant
(§12) Solvent: 78.0 parts by weight acetone • 1.5 parts by weight dimethylformamide
as §3, §4
French bean (Phaseolus vulgaris) leaf disks infected with all instars of the two spotted spidermite (Tetranychus urticae), are sprayed with a preparation of the active ingredient of the desired concentration.
After 6 days mortality in % is determined. 100% means all spider mites have been killed and 0% means none of the spider mites have been killed.

Meloidogyne incognita = Meloidogyne incognita test; details: 20 ppm; eggs and larvae, salad seeds in sand; after 14 days
Description: Meloidogyne incognita—Test
Solvent: 125.0 parts by weight of acetone
To produce a suitable preparation of active compound, 1 part by weight of active compound is mixed with the stated amount of solvent, and the concentrate is diluted with water to the desired concentration.
Vessels are filled with sand, a solution of the active ingredient, a suspension containing eggs and larvae of the southern root-knot nematode (Meloidogyne incognita) and salad seeds. The salad seeds germinate and the seedlings grow. Galls develop in the roots.
After 14 days the nematicidal activity is determined on the basis of the percentage of gall formation. 100% means no galls were found and 0% means the number of galls found on the roots of the treated plants was equal to that in untreated control plants.

Myzus persicae = Myzus persicae spray test; details: foliar, Chinese cabbage leaf disks, all instars, after 5-6 days
Description: Myzus persicae—Spray Test
as §12, §3, §4
Chinese cabbage (Brassica pekinensis) leaf disks infected with all instars of the green peach aphid (Myzus persicae), are sprayed with a preparation of the active ingredient of the desired concentration.
After 5-6 days mortality in % is determined. 100% means all aphids have been killed and 0% means none of the aphids have been killed.

Nezara viridula [4] = assay: Nezara viridula spray test (solvent 52.5 acetone / 7 dimethylformamide); details: 96 h, barley plants, larvae, after 4 days
Description: as §9, §6, §7
To produce a suitable preparation of active compound, 1 part by weight of active compound is mixed with the stated amount of solvent, and the concentrate is diluted with water, containing an emulsifier concentration of 1000 ppm, to the desired concentration. Ammonium salt and/or penetration enhancer in a dosage of 1000 ppm are added to the desired concentration if necessary.
as §10, §11

Ctenocephalides felis [5] = assay: whole plant or invertebrate; details: po, 48 h
Description: Ctenocephalides felis—Oral Test
as §1
To produce a suitable preparation of active compound, 10 mg of active compound are dissolved in 0.5 ml solvent, and the concentrate is diluted with cattle blood to the desired concentration.
Approximately 20 adult unfed cat fleas (Ctenocephalides felis) are placed in flea chambers. The blood chamber, sealed with parafilm on the bottom, are filled with cattle blood supplied with compound solution and placed on the gauze covered top of the flea chamber, so that the fleas are able to suck the blood. The blood chamber is heated to 37° C. whereas the flea chamber is kept at room temperature.
After 2 days mortality in % is determined. 100% means all the fleas have been killed; 0% means none of the fleas have been killed.

Musca domestica = Musca domestica test; details: Musca domestica, 48 h
Description: as §1
To produce a suitable preparation of active compound, 10 mg of active compound are dissolved in 0.5 ml solvent, and the concentrate is diluted with water to the desired concentration.
10 adult house flies (Musca domestica) are transferred into a container, containing a sponge soaked with a mixture of sugar solution and compound solution of the desired concentration.
After 2 days mortality in % is determined. 100% means all the flies have been killed; 0% means none of the flies have been killed.

Ctenocephalides felis [6] = assay: Ctenocephalides felis in-vitro contact test, adult cat flea; details: 5 μg/cm^2 (=500 g/ha), after 48 hours
Description: Ctenocephalides felis—In-Vitro Contact Tests Adult Cat Flea
9 mg compound is solved in 1 ml acetone and diluted with acetone to the desired concentration. 250 μl of the test solution is filled in 25 ml glass test tubes and homogeneously distributed on the inner walls by rotation and tilting on a shaking device (2 h at 30 rpm). With a compound concentration of 900 ppm, an inner surface of 44.7 cm^2 and a homogeneous distribution, a dose of 5 μg/cm^2 is achieved.
After the solvent has evaporated, each test tube is filled with 5-10 adult cat fleas (Ctenocephalides felis), closed with a perforated lid and incubated in a lying position at room temperature and relative humidity. After 48 hours efficacy is determined. The fleas are patted on the ground of the tubes and are incubated on a heating plate at 45-50° C. for at most 5 minutes. Immotile or uncoordinated moving fleas, which are not able to escape the heat by climbing upwards, are marked as dead or moribund.
An efficacy of 100% means all fleas are dead or moribund; 0% means no fleas are dead or moribund.

Spodoptera frugiperda = Spodoptera frugiperda spray test; details: 168 h, maize leaf sections, larvae, after 7 days
Description: Spodontera frugiperda—Spray Test
as §12, §3, §4
Maize (Zea mays) leaf sections are sprayed with a preparation of the active ingredient of the desired concentration. Once dry, the leaf sections are infested with fall armyworm larvae (Spodoptera frugiperda).
After 7 days mortality in % is determined. 100% means all caterpillars have been killed and 0% means none of the caterpillars have been killed.

| Compound | mortality at 100 ppm (Lucilia cuprina) [%] | mortality at 500 g/ha (Phaedon cochleariae) [%] | mortality at 500 g/ha (Nilaparvata lugens [1]) [%] | efficacy (infertile eggs) (Boophilus microplus) [%] | mortality at 500 g/ha (Nilaparvata lugens [2]) [%] | mortality at 500 g/ha (Nezara viridula [3]) [%] | efficacy (seedling growth) (Diabrotica balteata) [%] | mortality at 500 g/ha (Tetranychus urticae) [%] | nematicidal activity (gall formation) (Meloidogyne incognita) [%] | mortality at 500 g/ha (Myzus persicae) [%] | mortality at 500 g/ha (Nezara viridula [4]) [%] | mortality at 100 ppm (Ctenocephalides felis [5]) [%] | mortality at 100 ppm (Musca domestica) [%] | efficacy (fleas dead or moribund) (Ctenocephalides felis [6]) [%] | mortality at 500 g/ha (Spodoptera frugiperda) [%] |
| --- | --- | --- | --- | --- | --- | --- | --- | --- | --- | --- | --- | --- | --- | --- | --- |
| O=C(Nc1nc(-c2ccccc2C(F)(F)F)ns1)c1cccnc1C(F)(F)F [Compound I-1-20, 2-(trifluoromethyl)-N-{3-[2-(trifluoromethyl)phenyl]-1,2,4-thiadiazol-5-yl}nicotinamide] | 100 | ≥ 80 | ≥ 80 | 100 | ≥ 70 | ≥ 90 | 100 | ≥ 70 | 100 | ≥ 70 | ≥ 90 | 100 |  |  |  |
| O=C(c1cccnc1C(F)(F)F)N(C(=O)c1cccnc1C(F)(F)F)c1nc(-c2c(F)cccc2F)ns1 [Compound I-1-31, N-[3-(2,6-Difluorophenyl)-1,2,4-thiadiazol-5-yl]-2-(trifluoromethyl)-N-{[2-(trifluoromethyl)pyridin-3-yl]carbonyl}nicotinamide] | 100 | ≥ 80 |  | 100 |  |  |  | ≥ 70 |  |  | ≥ 90 | 100 | 80 | 100 |  |
| O=C(Nc1nc(-c2ccccc2OC(F)(F)F)ns1)c1cccnc1C(F)(F)F [Compound I-1-55, N-{3-[2-(Trifluoromethoxy)phenyl]-1,2,4-thiadiazol-5-yl}-2-(trifluoromethyl)nicotinamide] | 100 | ≥ 80 |  | 100 |  | ≥ 90 | 100 | ≥ 70 |  | ≥ 70 | ≥ 90 | 100 |  |  | ≥ 80 |
| O=C(Nc1nc(-c2cccc(C(F)(F)F)c2Cl)ns1)c1cccnc1C(F)(F)F [Compound I-1-62, N-{3-[2-Chloro-3-(trifluoromethyl)phenyl]-1,2,4-thiadiazol-5-yl}-2-(trifluoromethyl)nicotinamide] |  | ≥ 80 | ≥ 80 |  |  | ≥ 90 |  | ≥ 70 |  | ≥ 70 | ≥ 90 |  |  |  | ≥ 80 |
